In patent publication US20250195536A1, “BICYCLOOCTANE KRAS INHIBITORS” (Incyte Corporation, priority 2023, published 2025):

Columns and labels:
KRAS G12D = KRAS G12D (Homo sapiens, UniProt P01116, G12D); assay: GDP-GTP exchange assay (KRAS G12D); assay type: biochemical; conditions: bodipy-GDP/GppNHp exchange with SOS1; 4 h pre-incubation, 2 h reaction;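 also: one dagger IC50 up to 100 nM and two daggers above 100 nM up to 1 μM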
Procedure, shortened: (§1)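 IC50 came from a four-parameter fit of fluorescence loss (485/520 nm) as SOS1 (150 nM) swapped bodipy-GDP for GppNHp (500 μM) on 2.5 nM KRAS, final concentrations. Compounds were pre-incubated 4 h at r.t. (pH 7.5 Hepes, 10 mM MgCl2); exchange ran 2 h (G12D) or 3 h (G12V).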

[1] = Caco2 assay (permeability, Papp A-B); assay type: in vitro ADME; conditions: human, Caco-2, absorptive direction (A-B), 50 μM test compound, 4% BSA in receiver
Procedure, shortened: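 Absorptive (A-B) Papp: 50 μM test compound in HBSS added to apical side of 22-25-day Caco-2 monolayers (TEER 300 Ω·cm^2), receiver buffer containing 4% BSA. After 120 min at 37 °C, 5% CO2, both sides analysed by LCMS; Papp calculated from flux rate normalized to area and donor amount.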

KRAS G12V = KRAS G12V (Homo sapiens, UniProt P01116, G12V); assay: GDP-GTP exchange assay (KRAS G12V); assay type: biochemical; conditions: bodipy-GDP/GppNHp exchange with SOS1; 3 h incubation after GppNHp-SOS1;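 also: one dagger IC50 up to 100 nM and two daggers above 100 nM up to 1 μM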
KRAS G12V, sequence (P01116 1-188 isoform P01116-2 G12V): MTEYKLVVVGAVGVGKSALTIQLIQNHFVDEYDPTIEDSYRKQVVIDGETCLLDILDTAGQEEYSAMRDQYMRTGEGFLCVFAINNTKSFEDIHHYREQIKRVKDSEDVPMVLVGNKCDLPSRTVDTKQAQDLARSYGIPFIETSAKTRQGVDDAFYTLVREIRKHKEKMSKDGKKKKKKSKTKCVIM
Procedure, shortened: as §1

KRAS G12D, sequence (P01116 1-188 isoform P01116-2 G12D): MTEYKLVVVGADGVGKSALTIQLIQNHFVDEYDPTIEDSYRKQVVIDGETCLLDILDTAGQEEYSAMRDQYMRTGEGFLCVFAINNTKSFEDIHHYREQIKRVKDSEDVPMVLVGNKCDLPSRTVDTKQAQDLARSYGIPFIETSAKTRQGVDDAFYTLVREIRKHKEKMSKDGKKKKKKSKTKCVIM

G12D_exchange (KRAS_G12D exchange assay IC50) (KRAS G12D) | Papp A→B at 120 min, 50 μM [1] [×10⁻⁶ cm/s] | G12V_exchange (KRAS_G12V exchange assay IC50) (KRAS G12V) | SMILES
† | ≤ 0.5 | † | Cc1ccc(N2C[C@@H]3C[C@H](C2)N(C(=O)C2CC2)[C@H]3c2cc3c(C)nc4c(F)c(-c5cccc(Cl)c5Cl)c(CCC#N)cc4c3n2[C@H]2[C@H]3CN[C@@H]2C3)cn1 (atropisomer, axis not shown; (Ra)) [Example 14, 3-((Ra)-1-((1R,4R,5S)-2-azabicyclo[2.1.1]hexan-5-yl)-2-((1S,5R,7R)-6-(cyclopropanecarbonyl)-3-(6-methylpyridin-3-yl)-3,6-diazabicyclo[3.2.1]octan-7-yl)-7-(2,3-dichlorophenyl)-6-fluoro-4-methyl-1H-pyrrolo[3,2-c]quinolin-8-yl)propanenitrile]
††† | ≤ 0.5 | † | Cc1nc2c(F)c(-c3cccc(Cl)c3Cl)c(CCC#N)cc2c2c1cc(C1C3CC(CN(C4CCCCC4)C3=O)N1C(=O)C1CC1)n2C1C2CNC1C2 (atropisomer, axis not shown; (Ra)) [Example 113, 3-((Ra)-1-((1R,4R,5S)-2-Azabicyclo[2.1.1]hexan-5-yl)-2-((1R,5R,7R)-3-cyclohexyl-6-(cyclopropanecarbonyl)-2-oxo-3,6-diazabicyclo[3.2.1]octan-7-yl)-7-(2,3-dichlorophenyl)-6-fluoro-4-methyl-1H-pyrrolo[3,2-c]quinolin-8-yl)propanenitrile]
†† | ≤ 0.5 | † | Cc1nc2c(F)c(-c3cccc(Cl)c3Cl)c(CCC#N)cc2c2c1cc([C@H]1[C@H]3C[C@H](CN(c4ccc(OC(F)(F)F)cc4F)C3)N1C(=O)C1CC1)n2[C@H]1[C@H]2CN[C@@H]1C2 (atropisomer, axis not shown; (Ra)) [Example 28, 3-((Ra)-1-((1R,4R,5S)-2-azabicyclo[2.1.1]hexan-5-yl)-2-((1S,5R,7R)-6-(cyclopropanecarbonyl)-3-(2-fluoro-4-(trifluoromethoxy)phenyl)-3,6-diazabicyclo[3.2.1]octan-7-yl)-7-(2,3-dichlorophenyl)-6-fluoro-4-methyl-1H-pyrrolo[3,2-c]quinolin-8-yl)propanenitrile]
† | ≤ 0.5 | † | Cc1nc(N2C[C@@H]3C[C@H](C2)N(C(=O)C2CC2)[C@H]3c2cc3c(C)nc4c(F)c(-c5cccc(Cl)c5Cl)c(CCC#N)cc4c3n2[C@H]2[C@H]3CN[C@@H]2C3)sc1C#N (atropisomer, axis not shown; (Ra)) [Example 98, 2-((1S,5R,7R)-7-((Ra)-1-((1R,4R,5S)-2-azabicyclo[2.1.1]hexan-5-yl)-8-(2-cyanoethyl)-7-(2,3-dichlorophenyl)-6-fluoro-4-methyl-1H-pyrrolo[3,2-c]quinolin-2-yl)-6-(cyclopropanecarbonyl)-3,6-diazabicyclo[3.2.1]octan-3-yl)-4-methylthiazole-5-carbonitrile]
† | ≤ 0.5 | † | Cc1nc2c(F)c(-c3cccc(Cl)c3Cl)c(CCC#N)cc2c2c1cc([C@H]1[C@@H]3COC(=O)[C@@H](C3)N1C(=O)C1CC1)n2[C@H]1[C@H]2CN[C@@H]1C2 (atropisomer, axis not shown; (Ra)) [Example 116, 3-((Ra)-1-((1R,4R,5S)-2-Azabicyclo[2.1.1]hexan-5-yl)-2-((1R,5R,7R)-6-(cyclopropanecarbonyl)-4-oxo-3-oxa-6-azabicyclo[3.2.1]octan-7-yl)-7-(2,3-dichlorophenyl)-6-fluoro-4-methyl-1H-pyrrolo[3,2-c]quinolin-8-yl)propanenitrile]
† | ≤ 0.5 | † | Cc1nc2c(F)c(-c3cccc(Cl)c3Cl)c(CCC#N)cc2c2c1cc([C@H]1[C@H]3C[C@H](CN(C(=O)C4CC4)C3)N1C(=O)C1CC1)n2[C@H]1[C@H]2CN[C@@H]1C2 (atropisomer, axis not shown; (Ra)) [Example 107, 3-((Ra)-1-((1R,4R,5S)-2-Azabicyclo[2.1.1]hexan-5-yl)-2-((1 S,5R,7R)-3,6-di(cyclopropanecarbonyl)-3,6-diazabicyclo[3.2.1]octan-7-yl)-7-(2,3-dichlorophenyl)-6-fluoro-4-methyl-1H-pyrrolo[3,2-c]quinolin-8-yl)propanenitrile]
† | ≤ 0.5 | † | COC(=O)N1C[C@@H]2C[C@H](C1)N(C(=O)C1CC1)[C@H]2c1cc2c(C)nc3c(F)c(-c4cccc(Cl)c4Cl)c(CCC#N)cc3c2n1[C@H]1[C@H]2CN[C@@H]1C2 (atropisomer, axis not shown; (Ra)) [Example 108, Methyl (1 S,5R,7R)-7-((Ra)-1-((1R,4R,5S)-2-azabicyclo[2.1.1]hexan-5-yl)-8-(2-cyanoethyl)-7-(2,3-dichlorophenyl)-6-fluoro-4-methyl-1H-pyrrolo[3,2-c]quinolin-2-yl)-6-(cyclopropanecarbonyl)-3,6-diazabicyclo[3.2.1]octane-3-carboxylate]
† | ≤ 0.5 | † | Cc1nc2c(F)c(-c3cccc(Cl)c3Cl)c(CCC#N)cc2c2c1cc([C@H]1[C@H]3C[C@H](CN(c4cnn(C(F)(F)F)c4)C3)N1C(=O)C1CC1)n2[C@H]1[C@H]2CN[C@@H]1C2 (atropisomer, axis not shown; (Ra)) [Example 27, 3-((Ra)-1-((1R,4R,5S)-2-azabicyclo[2.1.1]hexan-5-yl)-2-((1S,5R,7R)-6-(cyclopropanecarbonyl)-3-(1-(trifluoromethyl)-1H-pyrazol-4-yl)-3,6-diazabicyclo[3.2.1]octan-7-yl)-7-(2,3-dichlorophenyl)-6-fluoro-4-methyl-1H-pyrrolo[3,2-c]quinolin-8-yl)propanenitrile]
† | ≤ 0.5 | † | COc1cccnc1N1C[C@@H]2C[C@H](C1)N(C(=O)C1CC1)[C@H]2c1cc2c(C)nc3c(F)c(-c4cccc(Cl)c4Cl)c(CCC#N)cc3c2n1[C@H]1[C@H]2CN[C@@H]1C2 (atropisomer, axis not shown; (Ra)) [Example 49, 3-((Ra)-1-((1R,4R,5S)-2-azabicyclo[2.1.1]hexan-5-yl)-2-((1S,5R,7R)-6-(cyclopropanecarbonyl)-3-(3-methoxypyridin-2-yl)-3,6-diazabicyclo[3.2.1]octan-7-yl)-7-(2,3-dichlorophenyl)-6-fluoro-4-methyl-1H-pyrrolo[3,2-c]quinolin-8-yl)propanenitrile]
† | ≤ 0.5 | † | Cc1csc(N2C[C@@H]3C[C@H](C2)N(C(=O)C2CC2)[C@H]3c2cc3c(C)nc4c(F)c(-c5cccc(Cl)c5Cl)c(CCC#N)cc4c3n2[C@H]2[C@H]3CN[C@@H]2C3)n1 (atropisomer, axis not shown; (Ra)) [Example 90, 3-((Ra)-1-((1R,4R,5S)-2-azabicyclo[2.1.1]hexan-5-yl)-2-((1S,5R,7R)-6-(cyclopropanecarbonyl)-3-(4-methylthiazol-2-yl)-3,6-diazabicyclo[3.2.1]octan-7-yl)-7-(2,3-dichlorophenyl)-6-fluoro-4-methyl-1H-pyrrolo[3,2-c]quinolin-8-yl)propanenitrile]
† | ≤ 0.5 | † | CCOc1cc(N2C[C@@H]3C[C@H](C2)N(C(=O)C2CC2)[C@H]3c2cc3c(C)nc4c(F)c(-c5cccc(Cl)c5Cl)c(CCC#N)cc4c3n2[C@H]2[C@H]3CN[C@@H]2C3)ccn1 (atropisomer, axis not shown; (Ra)) [Example 81, 3-((Ra)-1-((1R,4R,5S)-2-azabicyclo[2.1.1]hexan-5-yl)-2-((1S,5R,7R)-6-(cyclopropanecarbonyl)-3-(2-ethoxypyridin-4-yl)-3,6-diazabicyclo[3.2.1]octan-7-yl)-7-(2,3-dichlorophenyl)-6-fluoro-4-methyl-1H-pyrrolo[3,2-c]quinolin-8-yl)propanenitrile]
† | ≤ 0.5 | † | Cc1nc2c(F)c(-c3cccc(Cl)c3Cl)c(CCC#N)cc2c2c1cc([C@H]1[C@H]3C[C@H](CN(c4ncccn4)C3)N1C(=O)C1CC1)n2[C@H]1[C@H]2CN[C@@H]1C2 (atropisomer, axis not shown; (Ra)) [Example 33, 3-((Ra)-1-((1R,4R,5S)-2-azabicyclo[2.1.1]hexan-5-yl)-2-((1S,5R,7R)-6-(cyclopropanecarbonyl)-3-(pyrimidin-2-yl)-3,6-diazabicyclo[3.2.1]octan-7-yl)-7-(2,3-dichlorophenyl)-6-fluoro-4-methyl-1H-pyrrolo[3,2-c]quinolin-8-yl)propanenitrile]
